What was measured:
[1] = test system: GPI anchor-deficient RETs (Pig-A locus); assay: Pig-A mutation assay: frequency of mutant phenotype RETs, mice; assay type: in vivo; details: male CD-1 mice, 40 mg/kg/day oral gavage Days 1-3, FIG. 8C
Protocol: (§1) The cross-species potential of this assay is illustrated by this example, whereby male CD-1 mice were treated on three consecutive days (Day 1, 2 and 3) with N-ethyl-N-nitrosourea (ENU) via oral gavage. The dose levels were 0 or 40 mg/kg/day. Blood harvests occurred on Days 4, 15, 30, 45 and 90 (n=5 per time point per dose). Whereas the rat experiments described in Examples 2-4 above were based on serial blood draws, the mouse experiments were not. Rather, each mouse provided only one blood specimen, thereby requiring like-treated groups of animals to generate the data for each time point studied. This was done to eliminate the possible confounding effect that repeat-blood sampling may have had on the results given the low total blood volume associated with this particular small animal model.

reticulocytes [2] = assay: frequency of reticulocytes (% RET) in peripheral blood, flow cytometry, mice; assay type: in vivo; details: male CD-1 mice, 40 mg/kg/day oral gavage Days 1-3, FIG. 8A
Protocol: as §1

reticulocytes [3] = assay: frequency of reticulocytes (% RET) in peripheral blood, flow cytometry, rats; assay type: in vivo; details: male Wistar rats, FIG. 5A
Description: These in vivo experiments utilized naïve rats and focused on the development of simple and reproducible methods for staining and analyzing peripheral blood RBCs and RETs for the GPI anchor-deficient phenotype. As reported elsewhere, it was confirmed that the GPI-anchored protein CD59 is highly and stably expressed on RBCs throughout their lifespan in circulation (Hernández-Campo et al., “Quantitative Analysis of the Expression of Glycosylphosphatidylinositol-Anchored Proteins During the Maturation of Different Hematopoietic Cell Compartments of Normal Bone Marrow,” Cytometry 72B:34-42 (2007), which is hereby incorporated by reference in its entirety). […] A second fluorescent reagent, SYTO® 13 dye, was chosen to differentially stain NCEs, RETs, and leukocytes. […] Secondly, it provided better fluorescent resolution between NCEs, RETs and blood leukocytes. The separation of these latter two populations is particularly important, because not all leukocytes express CD59, and these cells can therefore be mistaken for GPI anchor-deficient RBCs if they are not excluded from analysis. […]
The prior three-color staining strategy outlined above has been described in Bryce et al., “In vivo mutation assay based on the endogenous Pig-a locus”, Environ. […] Samples processed in this manner were evaluated with and without the anti-platelet antibody, and virtually identical values were consistently obtained. […]

[4] = test system: GPI anchor-deficient RETs (Pig-A locus); assay: Pig-A mutation assay: frequency of GPI anchor-deficient (mutant phenotype) RETs, rats; assay type: in vivo, Wistar rats
Description: (§2) These in vivo experiments utilized naïve rats and focused on the development of simple and reproducible methods for staining and analyzing peripheral blood RBCs and RETs for the GPI anchor-deficient phenotype. As reported elsewhere, it was confirmed that the GPI-anchored protein CD59 is highly and stably expressed on RBCs throughout their lifespan in circulation (Hernández-Campo et al., “Quantitative Analysis of the Expression of Glycosylphosphatidylinositol-Anchored Proteins During the Maturation of Different Hematopoietic Cell Compartments of Normal Bone Marrow,” Cytometry 72B:34-42 (2007), which is hereby incorporated by reference in its entirety). […] A second fluorescent reagent, SYTO® 13 dye, was chosen to differentially stain NCEs, RETs, and leukocytes. […] Secondly, it provided better fluorescent resolution between NCEs, RETs and blood leukocytes. The separation of these latter two populations is particularly important, because not all leukocytes express CD59, and these cells can therefore be mistaken for GPI anchor-deficient RBCs if they are not excluded from analysis. Early staining trials also included a third fluorescent reagent, anti-platelet antibody (biotinylated anti-CD61 plus streptavidin-Cy5-PE), which was added to positively identify platelets and prevent platelets from interfering with the RBC-centric analyses.
(§3) The prior three-color staining strategy outlined above has been described in Bryce et al., “In vivo mutation assay based on the endogenous Pig-a locus”, Environ. Molec. Mutagen. 49:256-264 (2008) as well as U.S. Patent Application Publ. […] Samples processed in this manner were evaluated with and without the anti-platelet antibody, and virtually identical values were consistently obtained. […]
(§4) The thresholding technique is based on the fact that the vast majority of Lympholyte® processed blood cells are mature RBCs. […] In this case, it is possible to set the threshold parameter to the nucleic acid dye-associated fluorescence channel (i.e., FL1 for SYTO® 13), as opposed to the more common forward scatter trigger. […]

[5] = test system: GPI anchor-deficient RBCs (Pig-A locus); assay: Pig-A mutation assay: frequency of mutant phenotype RBCs, mice; assay type: in vivo; details: male CD-1 mice, 40 mg/kg/day oral gavage Days 1-3, FIG. 8B
Protocol: as §1

[6] = test system: GPI anchor-deficient RBCs (Pig-A locus); assay: Pig-A mutation assay: frequency of GPI anchor-deficient (mutant phenotype) RBCs, rats; assay type: in vivo, Wistar rats
Description: as §2, §3, §4

CCN(N=O)C(N)=O [ENU, N-ethyl-N-nitrosourea]
frequency of mutant phenotype RETs ([1]; Day 15): greatly elevated
frequency of mutant phenotype RETs ([1]; through Day 90): Robust increases in mutant cell frequency
frequency of reticulocytes (% RET) (reticulocytes [2]; Day 4): significantly reduced
frequency of reticulocytes (% RET), rebound effect (reticulocytes [2]; Day 15, vs control values): “overshoots” the control values
frequency of reticulocytes (% RET) (reticulocytes [3]; 20 or 40 mg/kg/day oral gavage Days 1-3, vs vehicle control): mean % RET are reduced in a dose-dependent manner
frequency of reticulocytes (% RET), rebound effect (reticulocytes [3]; high dose group (40 mg/kg/day oral gavage Days 1-3), vs control values): “overshoots” the control values
frequency of mutant phenotype RETs ([4]; male Wistar rats, 1, 5, 10 or 15 mg/kg/day oral gavage on 14 consecutive days, blood Day 23, FIG. 7B): very robust, dose-related increase in mutant cells
day on which maximal or near-maximal mutant RET frequency is reached ([4]; male Wistar rats, 20 or 40 mg/kg/day oral gavage Days 1-3, FIG. 5C): 15 days
frequency of mutant phenotype (GPI anchor-deficient) RETs ([4]; male Wistar rats, 20 or 40 mg/kg/day oral gavage Days 1-3, evident by Day 15, FIG. 5C): Robust, dose-related increases in mutant cell frequency
frequency of mutant phenotype RBCs ([5]; by Day 15): increased mutant cell frequencies
day on which maximum mutant RBC frequency is apparent ([5]; stable thereafter through Day 90): 30 days
frequency of mutant phenotype RBCs ([6]; male Wistar rats, 1, 5, 10 or 15 mg/kg/day oral gavage on 14 consecutive days, blood Day 23, FIG. 7A): very robust, dose-related increase in mutant cells
frequency of mutant phenotype (GPI anchor-deficient) RBCs ([6]; male Wistar rats, 20 or 40 mg/kg/day oral gavage Days 1-3, Day 15 through Day 90, FIG. 5B): Robust, dose-related increases in mutant cell frequency
day on which maximal mutant RBC frequency is reached ([6]; male Wistar rats, 20 or 40 mg/kg/day oral gavage Days 1-3, plateau thereafter, FIG. 5B): ≤ 45 days

Reference: patent publication US8187826B2, “Quantitative analysis of in vivo mutation at the Pig-A locus” (Litron Laboratories, Ltd., priority 2008, dated 2012)
